Consider 14 compounds from ChEMBL document CHEMBL1201862, “PubChem BioAssay data set” (2004).

Assay [1] deals with T1, Sentrin-specific protease 6 (Homo sapiens, UniProt Q9GZR1).
T1 sequence (Q9GZR1 whole entry): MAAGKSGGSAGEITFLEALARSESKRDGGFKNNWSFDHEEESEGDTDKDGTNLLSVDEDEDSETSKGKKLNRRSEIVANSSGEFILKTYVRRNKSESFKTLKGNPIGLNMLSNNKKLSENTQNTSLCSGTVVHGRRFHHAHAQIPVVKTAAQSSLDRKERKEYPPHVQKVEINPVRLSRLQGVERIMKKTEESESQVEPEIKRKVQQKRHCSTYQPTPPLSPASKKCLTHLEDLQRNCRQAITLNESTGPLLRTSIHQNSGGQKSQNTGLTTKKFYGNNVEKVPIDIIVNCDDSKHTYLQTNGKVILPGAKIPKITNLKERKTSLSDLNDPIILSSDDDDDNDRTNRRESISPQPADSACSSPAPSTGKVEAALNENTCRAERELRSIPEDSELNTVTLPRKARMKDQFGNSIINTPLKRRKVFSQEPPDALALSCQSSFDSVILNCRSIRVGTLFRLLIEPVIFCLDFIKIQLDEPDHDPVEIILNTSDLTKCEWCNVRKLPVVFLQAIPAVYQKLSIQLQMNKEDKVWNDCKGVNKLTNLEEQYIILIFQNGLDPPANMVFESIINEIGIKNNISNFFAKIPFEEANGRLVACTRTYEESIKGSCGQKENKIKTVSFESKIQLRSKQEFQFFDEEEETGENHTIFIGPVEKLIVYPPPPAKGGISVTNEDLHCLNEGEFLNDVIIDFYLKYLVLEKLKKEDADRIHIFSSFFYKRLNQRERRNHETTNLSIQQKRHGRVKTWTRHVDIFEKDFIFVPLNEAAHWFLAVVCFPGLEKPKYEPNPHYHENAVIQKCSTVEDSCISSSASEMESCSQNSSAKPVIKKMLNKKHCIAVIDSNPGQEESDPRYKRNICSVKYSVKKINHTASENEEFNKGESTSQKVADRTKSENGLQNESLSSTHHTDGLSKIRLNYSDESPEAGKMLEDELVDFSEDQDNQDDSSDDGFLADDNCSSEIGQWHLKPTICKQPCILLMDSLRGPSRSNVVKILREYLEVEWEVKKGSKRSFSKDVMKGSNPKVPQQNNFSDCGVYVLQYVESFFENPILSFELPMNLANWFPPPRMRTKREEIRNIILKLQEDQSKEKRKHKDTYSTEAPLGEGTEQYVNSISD
It counts as functional.

Assay [2] deals with HeLa. The assay is described as follows: ATP-based viability loss in HeLa cells – cell-based, CellTiter-Glo luminescence, cherry-pick samples, cytotoxicity control for MITF activator project, dose response (AID 540259). As to conditions: Homo sapiens. In kind it is functional. A general note: ATP-based viability assays read luminescence as a measure of living cells.
The target of assay [3] is T2, Caspase-3 (Homo sapiens, UniProt P42574).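 Note: Dose-response selectivity test against caspase-3 for candidate inhibitors of sentrin-specific proteases (SENPs).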
T2 sequence (P42574 whole entry): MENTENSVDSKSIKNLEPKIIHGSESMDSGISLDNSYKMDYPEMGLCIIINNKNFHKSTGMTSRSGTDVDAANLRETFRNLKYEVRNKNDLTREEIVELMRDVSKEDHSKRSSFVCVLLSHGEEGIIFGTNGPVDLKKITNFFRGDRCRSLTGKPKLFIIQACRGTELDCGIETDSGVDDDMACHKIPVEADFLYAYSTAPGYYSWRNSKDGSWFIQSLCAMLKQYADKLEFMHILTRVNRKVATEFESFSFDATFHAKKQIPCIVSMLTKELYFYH
It counts as functional.

The target in assay [4] is T3, Sentrin-specific protease 8 (Homo sapiens, UniProt Q96LD8).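 Note: luminescence read-out of SENP8 inhibition, dose-response confirmation following an ultra-high-throughput screen.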
T3 sequence (Q96LD8 whole entry): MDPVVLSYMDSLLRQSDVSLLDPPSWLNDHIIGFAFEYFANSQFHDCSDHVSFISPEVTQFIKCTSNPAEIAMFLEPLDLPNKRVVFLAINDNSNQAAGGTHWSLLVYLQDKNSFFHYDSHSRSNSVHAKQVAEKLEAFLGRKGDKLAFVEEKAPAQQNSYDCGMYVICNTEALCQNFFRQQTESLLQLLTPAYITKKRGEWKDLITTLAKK
It counts as functional.

Assay [5] has as its target T4, Sentrin-specific protease 7 (Homo sapiens, UniProt Q9BQF6).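 Note: Luminescence-based dose-response confirmation of ultra-high-throughput screening hits, measuring inhibition of SENP7.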
T4 sequence (Q9BQF6 whole entry): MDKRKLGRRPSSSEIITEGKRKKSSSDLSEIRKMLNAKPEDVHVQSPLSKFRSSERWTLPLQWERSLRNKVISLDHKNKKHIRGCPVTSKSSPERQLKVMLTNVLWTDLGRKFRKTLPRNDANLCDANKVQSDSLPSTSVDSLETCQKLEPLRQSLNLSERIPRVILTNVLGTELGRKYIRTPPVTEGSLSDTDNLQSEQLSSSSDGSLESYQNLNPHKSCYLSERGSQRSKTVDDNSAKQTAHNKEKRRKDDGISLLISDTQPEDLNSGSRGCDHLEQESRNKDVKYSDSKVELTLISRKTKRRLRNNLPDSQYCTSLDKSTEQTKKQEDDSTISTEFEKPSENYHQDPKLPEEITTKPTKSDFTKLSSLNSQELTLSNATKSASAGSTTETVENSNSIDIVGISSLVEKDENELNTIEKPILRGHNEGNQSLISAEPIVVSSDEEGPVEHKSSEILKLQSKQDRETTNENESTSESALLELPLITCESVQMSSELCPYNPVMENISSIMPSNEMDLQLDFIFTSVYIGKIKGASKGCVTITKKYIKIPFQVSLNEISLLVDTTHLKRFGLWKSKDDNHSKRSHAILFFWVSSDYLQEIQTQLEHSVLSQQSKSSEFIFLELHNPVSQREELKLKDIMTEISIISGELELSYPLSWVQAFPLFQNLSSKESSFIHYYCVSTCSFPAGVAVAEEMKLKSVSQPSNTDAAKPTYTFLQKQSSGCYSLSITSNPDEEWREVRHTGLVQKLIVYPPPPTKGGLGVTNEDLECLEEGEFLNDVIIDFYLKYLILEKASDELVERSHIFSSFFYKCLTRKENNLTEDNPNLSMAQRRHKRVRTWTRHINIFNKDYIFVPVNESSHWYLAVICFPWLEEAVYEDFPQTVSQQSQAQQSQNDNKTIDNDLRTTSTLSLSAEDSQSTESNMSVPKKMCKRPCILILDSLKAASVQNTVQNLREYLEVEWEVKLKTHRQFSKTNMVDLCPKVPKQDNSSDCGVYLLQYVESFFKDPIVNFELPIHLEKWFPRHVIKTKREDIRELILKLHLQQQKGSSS
It counts as functional.

Assay [6] has as its system HEK293. The assay is described as follows: EBV LMP1 TES2 canonical NF-kB signalling blockers – cell-based, HEK293, luciferase, cherry-pick, dose response (AID 588343). It counts as functional. The note with it: Homo sapiens.
Assay [7] has as its target T5, Adenosylmethionine-8-amino-7-oxononanoate aminotransferase (Mycobacterium tuberculosis, UniProt P9WQ81).
T5 sequence (P9WQ81 whole entry): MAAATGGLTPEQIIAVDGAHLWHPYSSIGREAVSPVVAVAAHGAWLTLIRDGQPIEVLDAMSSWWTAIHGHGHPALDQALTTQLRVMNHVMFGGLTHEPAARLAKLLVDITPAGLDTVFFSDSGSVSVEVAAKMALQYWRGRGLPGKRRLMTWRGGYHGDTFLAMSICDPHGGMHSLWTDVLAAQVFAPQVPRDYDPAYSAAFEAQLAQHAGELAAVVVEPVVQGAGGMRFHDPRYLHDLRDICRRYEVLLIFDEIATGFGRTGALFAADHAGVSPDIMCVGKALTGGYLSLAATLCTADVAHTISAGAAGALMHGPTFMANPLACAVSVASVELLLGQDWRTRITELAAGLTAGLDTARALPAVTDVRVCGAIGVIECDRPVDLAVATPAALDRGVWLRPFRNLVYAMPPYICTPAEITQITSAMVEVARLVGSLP
The assay is described as follows: Mycobacterium tuberculosis BioA enzyme inhibitor Measured in Biochemical System Using Plate Reader - 2163-02_Inhibitor_Dose_CherryPick_Activity. It counts as functional, Mycobacterium tuberculosis UT205.

Assay [8] in a line: blockers of HIV-1 envelope-mediated cell-cell fusion – cherry-pick, dose response (AID 652057). It counts as functional, cell-based.
Assay [9] in a line: blockers of HIV-1 ZM109 envelope-driven cell-cell fusion – HeLa effector, CEM target cells, luciferase, cherry-pick, dose response (AID 652058).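 Note: luciferase signal from HIV-1 Env mediated cell-cell fusion of effector and target cells.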 It counts as functional, cell-based.
Assay [10] can be described thus: off-target signal loss in HeLa-CEM21 co-culture – HeLa F-luc CTL cells, cherry-picked, counter-screen for HIV-1 Env fusion inhibitor project, dose response (AID 652040).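 Note: potency for signal decrease marking cytotoxic or nonspecific inhibition.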 In kind it is functional, cell-based. For orientation: Counterscreens check selectivity or assay interference.
The nature of assay [11]: HIV-1 AD8 envelope cell-cell fusion blockers – cherry-pick, dose response (AID 652062).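 Note: luciferase signal from cell-cell fusion driven by HIV-1 clade B AD8 Env; potency is for inhibitors of fusion seen as a drop in luminescence.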 In kind it is functional, cell-based.
Assay [12] addresses T6, Rac GTPase-activating protein 1 (Homo sapiens, UniProt Q9H0H5).
T6 sequence (Q9H0H5 whole entry): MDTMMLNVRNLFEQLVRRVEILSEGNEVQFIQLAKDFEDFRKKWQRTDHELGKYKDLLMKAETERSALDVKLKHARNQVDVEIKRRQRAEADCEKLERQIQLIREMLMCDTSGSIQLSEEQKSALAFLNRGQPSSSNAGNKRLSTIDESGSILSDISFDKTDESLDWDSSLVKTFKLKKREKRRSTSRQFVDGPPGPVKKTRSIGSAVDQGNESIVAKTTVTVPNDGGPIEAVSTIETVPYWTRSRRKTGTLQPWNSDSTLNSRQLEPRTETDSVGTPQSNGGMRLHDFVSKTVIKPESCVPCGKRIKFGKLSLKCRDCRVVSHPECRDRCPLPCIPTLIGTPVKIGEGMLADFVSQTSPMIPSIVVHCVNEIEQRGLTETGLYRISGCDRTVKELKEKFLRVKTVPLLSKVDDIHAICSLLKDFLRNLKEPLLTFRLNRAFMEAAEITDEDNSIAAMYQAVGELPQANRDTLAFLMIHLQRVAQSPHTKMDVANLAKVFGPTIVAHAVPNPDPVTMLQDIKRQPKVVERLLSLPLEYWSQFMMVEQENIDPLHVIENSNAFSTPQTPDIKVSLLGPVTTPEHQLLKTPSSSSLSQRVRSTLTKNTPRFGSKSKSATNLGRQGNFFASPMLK
The assay is described as follows: blockers of MgcRacGAP-driven Rac1 GTP hydrolysis – biochemical, ADP Hunter fluorescence, primary and confirmatory, confirmation (AID 624330). It counts as functional.

Assay [13] deals with Dual specificity tyrosine-phosphorylation-regulated kinase 1A (Rattus norvegicus, UniProt Q63470). In kind it is biochemical, Homo sapiens.
For assay [14], the target named is T7, Low molecular weight phosphotyrosine protein phosphatase (Homo sapiens, UniProt P24666).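 Note: Dose-response confirmation assay measuring inhibition of LMPTP enzyme activity by fluorescence intensity read-out.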
T7 sequence (P24666 whole entry): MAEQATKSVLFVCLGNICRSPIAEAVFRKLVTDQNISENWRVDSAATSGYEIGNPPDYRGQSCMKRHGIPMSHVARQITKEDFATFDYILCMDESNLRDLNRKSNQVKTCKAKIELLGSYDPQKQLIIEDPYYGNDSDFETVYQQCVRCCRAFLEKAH
In kind it is functional. The note with it: read-out: IC50_Mean.

What is called AC50 is the concentration at which the activity in the assay is half-maximal.

Active and inactive are the calls of the source.

`Cc1ccc(O)c(C2=Nc3ccccc3C2(C)C)c1`: the IC50 in assay [1] was 18.2 µM (active); in assay [3], 22.5 µM (active); in assay [4], 26.9 µM (active); in assay [5] it was 4.9 µM (active). In [2], the concentration at half-maximal activity (AC50) is 31.6 µM (active).
With `COc1ccc(C(=O)Nc2cccc(C(=O)N/N=C/c3ccc(OC)cc3OC)c2)cc1`, the AC50 in [6] is 1.79 µM (active).
`CC(=O)c1c(C)[nH]c(C(=O)Nc2cccnc2)c1C`: the AC50 in [7] is 3 µM (active).
Take `C[C@@]12C(=O)N(Cc3ccco3)CC(=O)N1[C@H]1c3ccccc3OC[C@@H]1[C@@H]2c1ccccc1`: the half-maximal activity concentration (AC50) in assay [8] was 3.14 µM (active); in assay [9] it was 3.09 µM (active); in assay [10], 12.4 µM (active).
Turning to `O=C(CSc1nnc(NC(=O)c2ccc3c(c2)OCO3)s1)NCc1ccco1`, in assay [6], the AC50 is 2.65 µM (active).
Take `CN(C)C(=O)C[C@@H]1C[C@H]2c3cc(NS(=O)(=O)c4ccc(F)cc4)ccc3O[C@H]2[C@H](CO)O1`: in [11], the AC50 is 3.41 µM (active).
As for `CCOc1cc(-c2nc3ccccc3s2)ccc1O`, the IC50 in [12] was 33.4 µM (active). Further, the AC50 in assay [13] is 5.92 µM (active).
`C[C@@H]1CN([C@H](C)CO)C(=O)c2cc(C#Cc3cccnc3)cnc2O[C@H]1CN(C)S(C)(=O)=O`: the half-maximal activity concentration (AC50) in [7] is 3.35 µM (active).
Regarding `Cn1c(C(=O)NCC2CCCO2)cc2c(=O)n(C)c3ccccc3c21` (configuration not stated), the half-maximal activity concentration (AC50) in assay [13] was 13.4 µM (active).
With `COc1ccc(F)cc1C(=O)C1CCCN(C(=O)c2ccc(C(C)=O)s2)C1` (configuration not stated), the AC50 in assay [7] is 1.06 µM (active).
As to `Cc1nc2ccccc2nc(C)c1=NOCc1cccc(Cl)c1`, the half-maximal activity concentration (AC50) in assay [8] is 10.3 µM (active); in assay [11], 0.421 µM (active); in assay [9], 13 µM (active); in assay [10], 11.6 µM (active).
For the compound `CN(C)c1ccc(/C=N/NC(=O)c2nnn(-c3nonc3N)c2COc2ccc(F)cc2)cc1`, the IC50 in assay [14] is 12 µM (active).
For `O=C(CCCC(=O)N(c1ccc2c(c1)OCCO2)C(C(=O)NC1CCCCC1)c1ccc(F)cc1)Nc1ccccn1` (configuration not stated), the concentration at half-maximal activity (AC50) in assay [8] was 6.87 µM (active); in assay [11], 31.9 µM (active); in assay [9], 4.52 µM (active); in [10], 42.5 µM (active).
Consider `Fc1ccc(NC(S)=Nc2cccc3cnccc23)cc1`, for which the AC50 in [13] was 9.44 µM (active).
